Source: US20200031866A1, “PEPTIDE INHIBITORS OF SODIUM CHANNELS” (SPYRYX BIOSCIENCES, INC., priority 2016, published 2020)
Square brackets hold non-standard residues; d marks the D form. Peptide text beside a SMILES is read from it.

Test system: tracheal mucus velocity (TMV) in sheep
Experiment: CFTRinh-172-induced slowing of tracheal mucus velocity (TMV) in sheep
Format: in vivo
Settings: for average TMV response between 5-12h: mean±se, 3 sheep/group, saline 50±0.5%
Procedure: All procedures used were approved by the Mount Sinai Medical Center Animal Research Committee. The sheep were conscious and intubated for these studies. All instrumentation was performed under local anesthesia. After topical anesthesia of the nasal passages with 2% lidocaine solution, the sheep were nasally intubated, with an endotracheal tube […] in diameter (Mallinckrodt Med Inc., St. Louis, Mo.) shortened by 6 cm. The cuff of the tube was placed just below the vocal cords (verified by fluoroscopy) to allow for maximal exposure of the tracheal surface area. The inspired air was warmed and humidified using a Bennett Humidifier (Puritan-Bennett, Lenexa, Kans.). To minimize possible impairment of TMV caused by the inflated cuff, the endotracheal tube cuff remained deflated throughout the study except for the period of drug delivery.
TMV was measured in vivo by a roentgenographic technique. Between 8 and 10 radiopaque Teflon/bismuth trioxide disks, 1-mm diameter, 0.8-mm thick and 1.5-2 mg in weight, were insufflated onto the trachea. A modified suction catheter connected to a source of continuous compressed air at a flow of 3-4 L/min was used to introduce the particles via the endotracheal tube. The catheter remained within the endotracheal tube only during particle delivery, so that no contact with the tracheal surface is made. The cephalad-axial velocities of the individual disks were recorded on videotape from a portable image intensifier unit. Individual disk velocities were calculated by measuring the distance traveled by each disk during a 1-min observation period. For each run, the mean value of all individual disk velocities was calculated. A collar containing radiopaque reference markers of known length was worn by the sheep, and used as a standard to correct for magnification effects inherent in the fluoroscopy unit.
Aerosols were generated using an Airlife medication nebulizer. To control aerosol delivery a dosimetry system activated by a piston respirator (Harvard Apparatus Respiratory Pump, Holliston, Mass.) was used. The nebulizer was connected to a T-piece with one end attached to the respiratory pump and the other to the animal's tracheal tube. Nebulized aerosols were delivered directly into the trachea only during inspiration at a frequency of 20 breaths/min and at a tidal volume of 500 mL.
Ten (10) mg of CFTRinh-172 was dissolved in 0.3 mL of DMSO. The solution was vortexed and then 2.7 mL of ethanol was added bringing the final nebulized solution of CFTRinh to 10 mg/3 mL. […]
After a 10 minute period on the humidifier, a baseline TMV was obtained Immediately following the baseline, the sheep were challenged with an aerosol of 10 mg of CFTRinh. TMV was measured hourly for 4h. […] TMV was then measured from 5-12h following treatment. […]

**Q.** With `CC[C@H](C)[C@H](NC(=O)[C@@H]1CCCN1C(=O)[C@H](CC(C)C)NC(=O)[C@@H](C)NC(=O)[C@@H](C)N)C(=O)N1CCC[C@H]1C(=O)N[C@@H](CC(C)C)C(=O)N[C@@H](CC(=O)O)C(=O)N[C@@H](CCC(N)=O)C(=O)N[C@H](C(=O)N[C@H](C)C(=O)N[C@H](C)C(N)=O)[C@@H](C)O` [SEQ ID NO:128, aaLPIPLDQTaa] (H-[dA][dA]LPIPLDQT[dA][dA]-NH2) as the compound, how does the “average TMV response between 5-12h” value (1 mg/kg nebulized 4 h after 10 mg CFTRinh) read?
**A.** 73.7±0.7%

**Q.** What about the “average TMV response between 5-12h” value (2 mg/kg nebulized 4 h after 10 mg CFTRinh) of the same compound?
**A.** 88.4±0.6%

**Q.** What about the “average TMV response between 5-12h” value (4 mg/kg nebulized 4 h after 10 mg CFTRinh) of the same compound?
**A.** 103.0±0.6%

**Q.** What about the “reversal of CFTRinh-induced slowing of TMV” value (reversal dose dependent, FIGS. 8A-8C) of the same compound?
**A.** can reverse CFTRinh-induced slowing of TMV
